Measurements from PMC3514216, “SRC Homology 2 Domain Binding Sites in Insulin, IGF-1 and FGF receptor mediated signaling networks reveal an extensive potential interactome” (Cell Communication and Signaling : CCS, 2012).
Changes are numbered by the printed parent chain.

What was measured:
Sh2d1b SH2 domain = Sh2d1b SH2 domain (Homo sapiens, UniProt O14796); test: SPOT peptide array; type: binding; settings: GST-SH2 0.25 μM, membrane-bound peptide, 1 mM DTT, LiCor read-out
Shc1 SH2 domain [1] = molecular target: T1, Shc1 SH2 domain (Homo sapiens, UniProt P29353); design: method as in PMID 7544002; settings: read-out: Affinity (KD); cited from earlier work
T1 sequence (P29353 488-579 limits assumed): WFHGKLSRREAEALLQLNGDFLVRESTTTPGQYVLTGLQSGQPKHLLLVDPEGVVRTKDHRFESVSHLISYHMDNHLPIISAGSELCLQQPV

CrkL SH2 domain [2] = molecular target: T2, CrkL SH2 domain (Homo sapiens, UniProt P46109); test: Fluorescence polarization solution binding; settings: Rhodamine B-labeled peptide, GST-SH2, Beacon 2000, read-out: Affinity (KD)
T2 sequence (P46109 14-102 limits assumed): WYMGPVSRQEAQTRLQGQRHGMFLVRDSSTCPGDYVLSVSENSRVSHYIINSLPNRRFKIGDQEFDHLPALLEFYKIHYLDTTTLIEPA
Excerpt: To verify the binding results obtained from addressable peptide arrays we employed an orthogonal method of determining SH2 interactions with peptide ligands. We measured the dissociation constants of 60 binary SH2-peptide pairs in solution by fluorescence polarization (Table 2, Additional file 2: Figures S3A-C).
Peptides were synthesized using FMOC-chemistry onto pre-loaded tenta-gel resins. Peptides were then labeled with Rhodamine B (Abbey Color) and then cleaved using trifluoroacetic acid. Peptides were lyophilized and then purified using a LC/MS (Agilent 2100). Dissociation constants were measured using the Beacon 2000 (Invitrogen) as previously described.
Binding Affinities determined by Fluorescence Polarization. Rhodamine B-labeled peptides were mixed with varying concentrations of GST-tagged SH2 domains. Fluorescence polarization measurements were read on a Beacon 2000 (Invitrogen). The curves were fit to a Michaelis-Menten equation to calculate the dissociation constant, KD. […] (C) Affinity measurements that fell below the 2X mean intensity and were considered array negative on the SPOT array.

Abl1 SH2 domain = molecular target: T3, Abl1 SH2 domain (Homo sapiens, UniProt P00519); test: SPOT peptide array; type: binding; settings: GST-SH2 0.25 μM, membrane-bound peptide, 1 mM DTT, LiCor read-out
T3 sequence (P00519 127-217 limits assumed): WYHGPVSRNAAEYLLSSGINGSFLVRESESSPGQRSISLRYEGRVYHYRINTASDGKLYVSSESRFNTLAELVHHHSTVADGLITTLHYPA
How it was run: (§1)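 Membrane-bound 11-mer phosphotyrosine peptides (pTyr at position 5, four N-terminal and six C-terminal flanking residues; ~5 nmol per spot) from receptor, scaffold and signalling proteins were probed with GST–SH2 fusions. Bound domain was detected with anti-GST and near-infrared secondary antibodies; spots >3× membrane mean scored positive, <1× mean negative.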

Nck1 SH2 domain = Nck1 SH2 domain (Homo sapiens, UniProt P16333); test: SPOT peptide array; type: binding; settings: GST-SH2 0.25 μM, membrane-bound peptide, 1 mM DTT, LiCor read-out
How it was run: as §1

panel of 50 SH2 domains = test: SPOT peptide array probed with each of 50 GST-SH2 domains; type: binding; settings: SH2 domains with intensity >3X array mean; GST-SH2 0.25 μM, 1 mM DTT
How it was run: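 Each GST-fused SH2 domain was overlaid on 192 membrane-synthesized pTyr peptides (11-mers, 4 N-terminal and 6 C-terminal flanking residues) and read with anti-GST and near-infrared secondary antibodies. Binding called relative to membrane mean intensity (>3× positive, <1× negative); GST-only probes defined nonspecific peptides.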

PI3K1_N SH2 domain [3] = molecular target: T4, PI3K1_N SH2 domain (Homo sapiens, UniProt P27986); test: SPOT peptide array; type: binding; settings: GST-SH2 0.25 μM, membrane-bound peptide, 1 mM DTT, LiCor read-out
T4 sequence (P27986 333-428 limits assumed): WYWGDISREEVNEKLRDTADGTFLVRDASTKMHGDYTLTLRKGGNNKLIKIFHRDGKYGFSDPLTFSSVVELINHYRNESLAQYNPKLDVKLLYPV
How it was run: as §1

Plcγ-C SH2 domain [4] = test: SPOT peptide array; type: binding; settings: GST-SH2 0.25 μM, membrane-bound peptide, 1 mM DTT, LiCor read-out
How it was run: as §1

Plcγ-N SH2 domain [5] = test: SPOT peptide array; type: binding; settings: GST-SH2 0.25 μM, membrane-bound peptide, 1 mM DTT, LiCor read-out
How it was run: as §1

Vav1 SH2 domain = Vav1 SH2 domain (Homo sapiens, UniProt P15498); test: SPOT peptide array; type: binding; settings: GST-SH2 0.25 μM, membrane-bound peptide, 1 mM DTT, LiCor read-out
Vav1 SH2 domain, sequence (P15498 671-765 limits assumed): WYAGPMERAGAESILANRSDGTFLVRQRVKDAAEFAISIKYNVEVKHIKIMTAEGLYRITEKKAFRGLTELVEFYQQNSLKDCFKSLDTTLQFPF
How it was run: as §1

Plcγ-N SH2 domain [6] = molecular target: Plcγ-N SH2 domain; design: method as in PMID 9422724; settings: tandem SH2 domains of PLCG1 against tandem phospho-peptide of PDGFRβ Y1009/Y1021; read-out: Affinity (KD); cited from earlier work
Plcγ-C SH2 domain [7] = molecular target: Plcγ-C SH2 domain; design: method as in 2 sources, one per row (each row's own in cited_ref): ref 95-97 = [95]; PMID 9422724; doi:10.1074/jbc.273.2.729; Ottinger EA Botfield MC Shoelson SE Tandem SH2 domains confer high specificity in tyrosine kinase signaling J Biol Chem 1998 273 729 735 9422724 10.1074/jbc.273.2.729 || [96]; PMID 8181064; doi:10.1016/0092-8674(94)90160-0; Pascal SM Singer AU Gish G Yamazaki T Shoelson SE Pawson T Kay LE Forman-Kay JD Nuclear magnetic resonance structure of an SH2 domain of phospholipase C-gamma 1 complexed with a high affinity binding || [97]; PMID 15641795; doi:10.1021/bi048641k; Finerty PJ Jr Mittermaier AK Muhandiram R Kay LE Forman-Kay JD NMR dynamics-derived insights into the binding properties of a peptide interacting with an SH2 domain Biochemistry 2005 44 694 703 156417 ||| ref [98] = [98]; PMID 11526507; doi:10.1038/sj.onc.1204654; Malabarba MG Milia E Faretta M Zamponi R Pelicci PG Di Fiore PP A repertoire library that allows the selection of synthetic SH2s with altered binding specificities Oncogene 2001 20 5186 5194 11526507; settings: tandem SH2 domains of PLCG1 against tandem phospho-peptide of PDGFRβ Y1009/Y1021; read-out: Affinity (KD); cited from earlier work
PI3K1_N SH2 domain [8] = molecular target: T4, PI3K1_N SH2 domain; design: method as in PMID 8384875; settings: cited from earlier work
Abl2 SH2 domain [9] = molecular target: T5, Abl2 SH2 domain (Homo sapiens, UniProt P42684); test: SPOT peptide array; type: binding; settings: spot intensity as factor of array mean; GST-SH2 0.25 μM
T5 sequence (P42684 173-263 limits assumed): T3 sequence (P00519 127-217 limits assumed) with N9S, G18L, R35L, A53T, S54A, L58V, S61T, S62A, N67S, I84V
How it was run: as §1

Crk SH2 domain = Crk SH2 domain (Homo sapiens, UniProt P46108); test: SPOT peptide array; type: binding; settings: spot intensity as factor of array mean; GST-SH2 0.25 μM
Crk SH2 domain, sequence (P46108 13-118 limits assumed): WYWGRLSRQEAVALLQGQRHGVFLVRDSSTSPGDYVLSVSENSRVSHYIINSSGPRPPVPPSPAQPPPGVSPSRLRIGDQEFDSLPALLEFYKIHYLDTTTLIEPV
How it was run: as §1

CrkL SH2 domain [10] = molecular target: T2, CrkL SH2 domain; test: SPOT peptide array; type: binding; settings: spot intensity as factor of array mean; GST-SH2 0.25 μM
How it was run: as §1

Shc1 SH2 domain [11] = molecular target: T1, Shc1 SH2 domain; test: SPOT peptide array; type: binding; settings: GST-SH2 0.25 μM, membrane-bound peptide, 1 mM DTT, LiCor read-out
How it was run: as §1

[12] = system: Ptpn11 SH2 domain (N or C not specified); test: SPOT peptide array; type: binding; settings: GST-SH2 0.25 μM, membrane-bound peptide, 1 mM DTT, LiCor read-out
How it was run: as §1

Ptpn11_C SH2 domain = test: SPOT peptide array; type: binding; settings: spot intensity as factor of array mean; GST-SH2 0.25 μM
How it was run: as §1

Ptpn11_N SH2 domain = molecular target: T6, Ptpn11_N SH2 domain (Homo sapiens, UniProt Q06124); test: SPOT peptide array; type: binding; settings: spot intensity as factor of array mean; GST-SH2 0.25 μM
T6 sequence (Q06124 6-102 limits assumed): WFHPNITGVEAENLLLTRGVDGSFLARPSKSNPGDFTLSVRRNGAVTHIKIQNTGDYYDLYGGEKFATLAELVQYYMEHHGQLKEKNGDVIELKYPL
How it was run: as §1

Grb2 SH2 domain = Grb2 SH2 domain (Homo sapiens, UniProt P62993); design: method as in earlier work; settings: SH2 protein microarray; N.B. = non binding; read-out: Protein Microarray (Macbeath) – KD; cited from earlier work
Grb2 SH2 domain, sequence (P62993 60-152 limits assumed): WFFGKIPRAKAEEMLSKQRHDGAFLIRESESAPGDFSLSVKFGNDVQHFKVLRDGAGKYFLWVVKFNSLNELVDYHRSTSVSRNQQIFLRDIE

Abl2 SH2 domain [13] = molecular target: T5, Abl2 SH2 domain; design: method as in earlier work; settings: SH2 protein microarray; N.B. = non binding; read-out: Protein Microarray (Macbeath) – KD; cited from earlier work
Src SH2 domain [14] = molecular target: T7, Src SH2 domain (Homo sapiens, UniProt P12931); test: SPOT peptide array; type: binding; settings: GST-SH2 0.25 μM, membrane-bound peptide, 1 mM DTT, LiCor read-out
How it was run: as §1

Lck SH2 domain [15] = test: SPOT peptide array; type: binding; settings: GST-SH2 0.25 μM, membrane-bound peptide, 1 mM DTT, LiCor read-out
Src SH2 domain [16] = molecular target: T7, Src SH2 domain; design: method as in 2 sources, ref [19] = [19]; PMID 7680959; doi:10.1016/0092-8674(93)90404-e; Songyang Z Shoelson SE Chaudhuri M Gish G Pawson T Haser WG King F Roberts T Ratnofsky S Lechleider RJ SH2 domains recognize specific phosphopeptide sequences Cell 1993 72 767 778 7680959 10.1016/0092 ||| ref [119, 121] = [119]; PMID 9032297; doi:10.1128/mcb.17.3.1702; Schlaepfer DD Broome MA Hunter T Fibronectin-stimulated signaling from a focal adhesion kinase-c-Src complex: involvement of the Grb2, p130cas, and Nck adaptor proteins Mol Cell Biol 1997 17 1702 1713 || [121]; PMID 16245368; doi:10.1002/jmr.755; Nasertorabi F Tars K Becherer K Kodandapani R Liljas L Vuori K Ely KR Molecular basis for regulation of Src by the docking protein p130Cas J Mol Recognit 2006 19 30 38 16245368 10.1002/jmr.755; settings: read-out: Affinity (KD); cited from earlier work
Lck SH2 domain [17] = molecular target: Lck SH2 domain; design: method as in PMID 11278862; settings: read-out: Affinity (KD); cited from earlier work

Sh2d1b SH2 domain, sequence (O14796 5-101 limits assumed): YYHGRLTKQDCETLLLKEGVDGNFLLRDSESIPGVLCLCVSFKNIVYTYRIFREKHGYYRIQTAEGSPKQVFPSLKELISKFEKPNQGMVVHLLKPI

SLTIpYAQVQKA [11-mer phosphotyrosine control peptide, SLAM (Y280)]
Array positive (Sh2d1b SH2 domain): Yes (Array-positive binding was ascribed to interactions with intensities greater than three times the array mean)

HDGLpYQGLSTA (HDGLYQGLSTA) [11-mer phosphotyrosine control peptide, CD150 (Y142)]
Kd (Shc1 SH2 domain [1]): 50000 nM

CC(C)C[C@H](NC(=O)[C@H](CCC(=O)O)NC(=O)[C@H](Cc1ccc(OP(=O)(O)O)cc1)NC(=O)[C@H](CCC(=O)O)NC(=O)[C@H](CO)NC(=O)[C@@H](NC(=O)CN)C(C)C)C(=O)N1CCC[C@H]1C(=O)N[C@@H](CCC(=O)O)C(=O)N[C@@H](CC(=O)O)C(=O)N1CCC[C@H]1C(=O)O [GVSEpYELPEDP]
Kd (CrkL SH2 domain [2]): > 50000 nM

EDPIpYDEPEGL [11-mer phosphotyrosine peptide, p62DOK1 (Y362)]
Array positive (Abl1 SH2 domain): Yes (Array-positive binding was ascribed to interactions with intensities greater than three times the array mean) | Array positive (Nck1 SH2 domain): Yes (Array-positive binding was ascribed to interactions with intensities greater than three times the array mean) | Other SH2 domains bound (additional array-positive SH2 domains) (panel of 50 SH2 domains): Blk, Hck, Lck, Lyn, Shc1, Src

ADNDpYIIPLPD [11-mer phosphotyrosine control peptide, PDGFRb (Y1021), reference compound]
Array positive (PI3K1_N SH2 domain [3]): No (Peptide spots with average intensity values between 1X-3X the array mean were defined as ‘indeterminate’. Those with intensities below 1X mean were defined as array negative) | Array positive (Plcγ-C SH2 domain [4]): Yes (Array-positive binding was ascribed to interactions with intensities greater than three times the array mean) | Array positive (Plcγ-N SH2 domain [5]): Yes (Array-positive binding was ascribed to interactions with intensities greater than three times the array mean) | Array positive (Vav1 SH2 domain): Yes (Array-positive binding was ascribed to interactions with intensities greater than three times the array mean) | Other SH2 domains bound (additional array-positive SH2 domains) (panel of 50 SH2 domains): Brk | Kd (Plcγ-N SH2 domain [6]): 0.65 to 2.2 nM | Kd (Plcγ-C SH2 domain [7]): 0.65 to 2.2 nM | Relative affinity (ID50) (PI3K1_N SH2 domain [8]): 45000 nM

SSKDLVSCApYQVARGMED
Peptide array intensity (X mean) (Abl2 SH2 domain [9]): <2x X Mean | Peptide array intensity (X mean) (Crk SH2 domain): <2x X Mean | Peptide array intensity (X mean) (CrkL SH2 domain [10]): <2x X Mean

HDGLpYQGLSTA [11-mer phosphotyrosine control peptide, CD150 (Y142)]
Array positive (Shc1 SH2 domain [11]): No (Peptide spots with average intensity values between 1X-3X the array mean were defined as ‘indeterminate’. Those with intensities below 1X mean were defined as array negative)

STVEpYSTVVHS [11-mer phosphotyrosine control peptide, gp130/IL-6 Receptor (Y759), reference compound]
Array positive [12]: No (Peptide spots with average intensity values between 1X-3X the array mean were defined as ‘indeterminate’. Those with intensities below 1X mean were defined as array negative) | Peptide array intensity (X mean) (Ptpn11_C SH2 domain): 2.8 X Mean | Peptide array intensity (X mean) (Ptpn11_N SH2 domain): 1.33 X Mean | Other SH2 domains bound (additional array-positive SH2 domains) (panel of 50 SH2 domains): PTPN11_N is 1.33X Mean, PTPN11_C is 2.8X Mean Brdg1, Brk, Sh2d1b

EIFTLGGSPpYPGVPVEED (EIFTLGGSPYPGVPVEED)
Kd (Grb2 SH2 domain): 140 nM | Kd (Abl2 SH2 domain [13]): 400 nM

AEPQpYEEIPIY [11-mer phosphotyrosine control peptide, Middle T-antigen (Y323), reference compound]
Array positive (Src SH2 domain [14]): Yes (Array-positive binding was ascribed to interactions with intensities greater than three times the array mean) | Array positive (Lck SH2 domain [15]): Yes (Array-positive binding was ascribed to interactions with intensities greater than three times the array mean) | Other SH2 domains bound (additional array-positive SH2 domains) (panel of 50 SH2 domains): Blk, Brk, Fer, Fgr, Hck, Lyn, Nck1, Shc1, Yes | Kd (Src SH2 domain [16]): 550 to 800 nM | Kd (Lck SH2 domain [17]): 1300 ± 200 nM
